In brackets after ≈: the same amount, converted by molar mass.
Columns and labels:
Assay type in all cases: functional
Candida albicans [1] = assay: Antifungal activity against Candida albicans
Candida parapsilosis = assay: Antifungal activity against Candida parapsilosis
Candida tropicalis = assay: Antifungal activity against Candida tropicalis
Kluyveromyces marxianus = assay: Antifungal activity against Candida kefyr
Cryptococcus neoformans [2] = assay: Antifungal activity against Cryptococcus neoformans
Trichophyton rubrum = assay: Antifungal activity against Trichophyton rubrum
Aspergillus fumigatus = assay: Antifungal activity against Aspergillus fumigatus
Candida albicans [3] = assay: Antifungal activity against Candida albicans after 24 hrs by NCCLS protocol based method
Cryptococcus neoformans [4] = assay: Antifungal activity against Cryptococcus neoformans after 72 hrs by NCCLS protocol based method
[5] = Lodderomyces parapsilosis, read-out: MIC
[6] = Cryptococcus neoformans, read-out: MIC
[7] = Trichophyton rubrum, read-out: MIC

SMILES	MIC (Candida albicans [1]) [ng/mL]	MIC (Candida parapsilosis) [ng/mL]	MIC (Candida tropicalis) [ng/mL]	MIC (Kluyveromyces marxianus) [ng/mL]	MIC (Cryptococcus neoformans [2]) [ng/mL]	MIC (Trichophyton rubrum) [ng/mL]	MIC (Aspergillus fumigatus) [ng/mL]	other results
CCN(Cc1cn(Cc2ccc(Cl)cc2)nn1)CC(O)(Cn1cncn1)c1ccc(F)cc1F (stereo unspecified)	–	–	–	–	–	–	–	MIC (Candida albicans [1]; Candida albicans, read-out: MIC): 3.9 to 62.5 ng/mL (≈ 7.99 to 128 nM); MIC (Candida parapsilosis; [5]): 3.9 to 62.5 ng/mL (≈ 7.99 to 128 nM); MIC (Candida tropicalis; Candida tropicalis, read-out: MIC): 3.9 to 62.5 ng/mL (≈ 7.99 to 128 nM); MIC (Kluyveromyces marxianus; Kluyveromyces marxianus, read-out: MIC): 3.9 to 62.5 ng/mL (≈ 7.99 to 128 nM); MIC (Cryptococcus neoformans [2]; [6]): 3.9 to 62.5 ng/mL (≈ 7.99 to 128 nM); MIC (Trichophyton rubrum; [7]): 3.9 to 62.5 ng/mL (≈ 7.99 to 128 nM)
C#CCN(Cc1ccccc1[N+](=O)[O-])CC(O)(Cn1cncn1)c1ccc(F)cc1F (stereo unspecified)	0.24 to 250	0.24 to 250	0.24 to 250	0.24 to 250	0.24 to 250	0.24 to 250	0.24 to 250	–
C#CCN(Cc1ccc(Br)cc1)CC(O)(Cn1cncn1)c1ccc(F)cc1F (stereo unspecified)	0.24 to 250	0.24 to 250	0.24 to 250	0.24 to 250	0.24 to 250	0.24 to 250	0.24 to 250	–
Cc1cccc(-c2cn(CC(O)(Cn3cncn3)c3ccc(F)cc3F)nn2)c1 (stereo unspecified)	–	–	–	–	–	–	–	MIC (Trichophyton rubrum; [7]): 250 ng/mL (≈ 631 nM)
O=C1S/C(=C\c2ccco2)C(=O)N1CC(O)(Cn1cncn1)c1ccc(F)cc1F (stereo unspecified)	–	–	–	–	–	–	–	MIC80 (Candida albicans [3]): 0.03 to 0.15 µM (≈ 0.013 to 0.0649 µg/mL); MIC80 (Cryptococcus neoformans [4]): 0.12 µM (≈ 0.0519 µg/mL)
CCCCCCc1cnn(Cn2cc(CC(O)(Cn3cncn3)c3ccc(F)cc3F)nn2)n1 (stereo unspecified)	–	–	–	–	–	–	–	MIC (Candida parapsilosis; [5]): 3 ng/mL (≈ 6.36 nM); MIC (Cryptococcus neoformans [2]; [6]): 0.15 ng/mL (≈ 0.318 nM)
CCCc1ccc(-c2nnc(SCc3cn(CC(O)(Cn4cncn4)c4ccc(F)cc4F)nn3)o2)cc1 (stereo unspecified)	–	–	–	–	–	–	–	MIC80 (Candida albicans [1]; Candida albicans): 500 ng/mL (≈ 928 nM)
O=C1S/C(=C\c2ccoc2)C(=O)N1CC(O)(Cn1cncn1)c1ccc(F)cc1F (stereo unspecified)	–	–	–	–	–	–	–	MIC80 (Candida albicans [3]): 0.03 to 0.15 µM (≈ 0.013 to 0.0649 µg/mL); MIC80 (Cryptococcus neoformans [4]): 0.12 µM (≈ 0.0519 µg/mL)
C#CCN(Cc1ccc(C)cc1)CC(O)(Cn1cncn1)c1ccc(F)cc1F (stereo unspecified)	0.24 to 250	0.24 to 250	0.24 to 250	0.24 to 250	0.24 to 250	0.24 to 250	0.24 to 250	–
CCN(Cc1cn(Cc2ccc(Cl)cc2Cl)nn1)CC(O)(Cn1cncn1)c1ccc(F)cc1F (stereo unspecified)	–	–	–	–	–	–	–	MIC (Trichophyton rubrum; [7]): 3.9 ng/mL (≈ 7.47 nM)
C#CCN(Cc1ccc(OC)cc1)CC(O)(Cn1cncn1)c1ccc(F)cc1F (stereo unspecified)	0.24 to 250	0.24 to 250	0.24 to 250	0.24 to 250	0.24 to 250	0.24 to 250	0.24 to 250	–
CN(CCOc1ccc(CC2SC(=O)N(CC(O)(Cn3cncn3)c3ccc(F)cc3F)C2=O)cc1)c1ccccn1 (stereo unspecified)	–	–	–	–	–	–	–	MIC80 (Candida albicans [3]): 6.72 µM (≈ 4 µg/mL); MIC80 (Cryptococcus neoformans [4]): 13.4 µM (≈ 8 µg/mL)
Cc1ccccc1-c1nnc(SCc2cn(CC(O)(Cn3cncn3)c3ccc(F)cc3F)nn2)o1 (stereo unspecified)	–	–	–	–	–	–	–	MIC80 (Candida albicans [1]; Candida albicans): 500 ng/mL (≈ 979 nM)
C#CCN(Cc1cccc(Br)c1)CC(O)(Cn1cncn1)c1ccc(F)cc1F (stereo unspecified)	0.24 to 250	0.24 to 250	0.24 to 250	0.24 to 250	0.24 to 250	0.24 to 250	0.24 to 250	–
O=C1S/C(=C\c2ccc(Cl)cc2Cl)C(=O)N1CC(O)(Cn1cncn1)c1ccc(F)cc1F (stereo unspecified)	–	–	–	–	–	–	–	MIC80 (Candida albicans [3]): 0.03 to 0.15 µM (≈ 0.0153 to 0.0767 µg/mL); MIC80 (Cryptococcus neoformans [4]): 0.12 µM (≈ 0.0614 µg/mL)
OC(Cc1cn(Cn2ncc(CC3CCCCC3)n2)nn1)(Cn1cncn1)c1ccc(F)cc1F (stereo unspecified)	–	–	–	–	–	–	–	MIC (Candida parapsilosis; [5]): 3 ng/mL (≈ 6.2 nM); MIC (Cryptococcus neoformans [2]; [6]): 0.15 ng/mL (≈ 0.31 nM)
C#CCN(Cc1ccccc1C)CC(O)(Cn1cncn1)c1ccc(F)cc1F (stereo unspecified)	0.24 to 250	0.24 to 250	0.24 to 250	0.24 to 250	0.24 to 250	0.24 to 250	0.24 to 250	–
C#CCN(Cc1ccccc1Cl)CC(O)(Cn1cncn1)c1ccc(F)cc1F (stereo unspecified)	0.24 to 250	0.24 to 250	0.24 to 250	0.24 to 250	0.24 to 250	0.24 to 250	0.24 to 250	–
C#CCN(Cc1ccc([N+](=O)[O-])cc1)CC(O)(Cn1cncn1)c1ccc(F)cc1F (stereo unspecified)	0.24 to 250	0.24 to 250	0.24 to 250	0.24 to 250	0.24 to 250	0.24 to 250	0.24 to 250	–

Now from value to compound, other results behind:

MIC (Candida albicans [1]) [ng/mL]	MIC (Candida parapsilosis) [ng/mL]	MIC (Candida tropicalis) [ng/mL]	MIC (Kluyveromyces marxianus) [ng/mL]	MIC (Cryptococcus neoformans [2]) [ng/mL]	MIC (Trichophyton rubrum) [ng/mL]	MIC (Aspergillus fumigatus) [ng/mL]	SMILES	other results
0.24 to 250	0.24 to 250	0.24 to 250	0.24 to 250	0.24 to 250	0.24 to 250	0.24 to 250	C#CCN(Cc1cccc(C#N)c1)CC(O)(Cn1cncn1)c1ccc(F)cc1F (stereo unspecified)	–
0.24 to 250	0.24 to 250	0.24 to 250	0.24 to 250	0.24 to 250	0.24 to 250	0.24 to 250	C#CCN(Cc1ccccc1)CC(O)(Cn1cncn1)c1ccc(F)cc1F (stereo unspecified)	–
0.24 to 250	0.24 to 250	0.24 to 250	0.24 to 250	0.24 to 250	0.24 to 250	0.24 to 250	C#CCN(Cc1c(Cl)cccc1Cl)CC(O)(Cn1cncn1)c1ccc(F)cc1F (stereo unspecified)	–
0.24 to 250	0.24 to 250	0.24 to 250	0.24 to 250	0.24 to 250	0.24 to 250	0.24 to 250	C#CCN(Cc1ccc(F)cc1)CC(O)(Cn1cncn1)c1ccc(F)cc1F (stereo unspecified)	–
0.24 to 250	0.24 to 250	0.24 to 250	0.24 to 250	0.24 to 250	0.24 to 250	0.24 to 250	C#CCN(Cc1ccc(C#N)cc1)CC(O)(Cn1cncn1)c1ccc(F)cc1F (stereo unspecified)	–
0.24 to 250	0.24 to 250	0.24 to 250	0.24 to 250	0.24 to 250	0.24 to 250	0.24 to 250	C#CCN(Cc1cccc(C)c1)CC(O)(Cn1cncn1)c1ccc(F)cc1F (stereo unspecified)	–
0.24 to 250	0.24 to 250	0.24 to 250	0.24 to 250	0.24 to 250	0.24 to 250	0.24 to 250	C#CCN(Cc1ccccc1C#N)CC(O)(Cn1cncn1)c1ccc(F)cc1F (stereo unspecified)	–
0.24 to 250	0.24 to 250	0.24 to 250	0.24 to 250	0.24 to 250	0.24 to 250	0.24 to 250	C#CCN(Cc1cccc(F)c1)CC(O)(Cn1cncn1)c1ccc(F)cc1F (stereo unspecified)	–
0.24 to 250	0.24 to 250	0.24 to 250	0.24 to 250	0.24 to 250	0.24 to 250	0.24 to 250	C#CCN(Cc1ccc(Cl)cc1)CC(O)(Cn1cncn1)c1ccc(F)cc1F (stereo unspecified)	–
0.24 to 250	0.24 to 250	0.24 to 250	0.24 to 250	0.24 to 250	0.24 to 250	0.24 to 250	C#CCN(Cc1cccc(Cl)c1)CC(O)(Cn1cncn1)c1ccc(F)cc1F (stereo unspecified)	–
0.24 to 250	0.24 to 250	0.24 to 250	0.24 to 250	0.24 to 250	0.24 to 250	0.24 to 250	C#CCN(Cc1ccc(Cl)cc1Cl)CC(O)(Cn1cncn1)c1ccc(F)cc1F (stereo unspecified)	–
0.24 to 250	0.24 to 250	0.24 to 250	0.24 to 250	0.24 to 250	0.24 to 250	0.24 to 250	C#CCN(Cc1ccccc1Br)CC(O)(Cn1cncn1)c1ccc(F)cc1F (stereo unspecified)	–
0.24 to 250	0.24 to 250	0.24 to 250	0.24 to 250	0.24 to 250	0.24 to 250	0.24 to 250	C#CCN(Cc1ccccc1F)CC(O)(Cn1cncn1)c1ccc(F)cc1F (stereo unspecified)	–
0.24 to 250	0.24 to 250	0.24 to 250	0.24 to 250	0.24 to 250	0.24 to 250	0.24 to 250	C#CCN(Cc1cccc([N+](=O)[O-])c1)CC(O)(Cn1cncn1)c1ccc(F)cc1F (stereo unspecified)	–

From ChEMBL document CHEMBL4396865, “Current advances of triazole alcohols derived from fluconazole: Design, in vitro and in silico studies” (2019)
